Measured values reported in patent publication US20110200626A1, “IQGAP3 EPITOPE PEPTIDES AND VACCINES CONTAINING THE SAME” (Oncotherapy Science, Inc., priority 2008, published 2011).
“Also recorded” adds a separate entry of the source. Ends that are not written are not given here.

Key:
peptide-pulsed T2 cells [1] = experiment: IFN-gamma ELISPOT assay on CTLs induced with HLA-A*0201 restricted peptides; assay type: cell-based, human; settings: against peptide-pulsed target cells compared with control without peptide
peptide-pulsed T2 cells [2] = experiment: IFN-gamma ELISA assay on CTL clones established by limiting dilution (HLA-A*0201); assay type: cell-based, human; settings: peptide-pulsed target cells
Procedure: The dilutions were made to have 0.3, 1, and 3 CTLs/well in 96 round-bottomed micro titer plate (Nalge Nunc International). CTLs were cultured with 1×10^4 cells/well of 2 kinds of human B-lymphoblastoid cell lines, 30 ng/ml of anti-CD3 antibody, and 125 U/ml of IL-2 in a total of 150 and/well of AIM-VMedium containing 5% AS. 50 mcl/well of IL-2 were added to the medium 10 days later so to reach a final concentration of 125 U/ml IL-2. CTL activity was tested on the 14th day, and CTL clones were expanded using the same method as described above (Uchida N et al., Clin Cancer Res 2004 Dec. 15, 10(24): 8577-86; Suda T et al., Cancer Sci 2006 May, 97(5): 411-9; Watanabe T et al., Cancer Sci 2005 August, 96(8): 498-506).
Specifically, peptide-pulsed A24 or T2 LCL (1×10^4/well) was prepared as stimulator cells. Cultured cells in 48 wells were used as responder cells. IFN-gamma ELISPOT assay and IFN-gamma ELISA assay were performed under manufacture procedure.

peptide-pulsed T2 cells [3] = experiment: IFN-gamma ELISA assay on CTL lines (HLA-A*0201); assay type: cell-based, human; settings: target cells pulsed with corresponding peptide vs without peptide
[4] = test system: COS7 cells transfected with IQGAP3 and HLA-A*0201; experiment: Specific CTL activity against target cells exogenously expressing IQGAP3 and HLA-A*0201; assay type: cell-based; settings: for specific CTL activity of CTL clone against controls: COS7 cells expressing either HLA-A*0201 or IQGAP3 alone; for specific CTL activity of CTL clone: COS7 cells transfected with both IQGAP3 and HLA-A*0201
From the text: The cDNA encoding an open reading frame of target genes or HLA-A*0201 was amplified by PCR. The PCR-amplified products were cloned into pCAGGS vector. The plasmids were transfected into COST, which is the target genes and HLA-A*0201-negative cell line, using lipofectamine 2000 (Invitrogen) according to the manufacturer's recommended procedures. After 2 days from transfection, the transfected cells were harvested with versene (Invitrogen) and used as the target cells (5×10^4 cells/well) for CTL activity assay

[5] = test system: COS7 cells transfected with IQGAP3 and HLA-A*2402; experiment: Specific CTL activity against target cells exogenously expressing IQGAP3 and HLA-A*2402; assay type: cell-based
From the text: The cDNA encoding an open reading frame of target gene or HLA-A24 was amplified by PCR. The PCR-amplified product was cloned into pCAGGS vector. The plasmids were transfected into COS7, which is the target gene and HLA-A24-null cell line, using lipofectamine 2000 (Invitrogen) according to the manufacturer's recommended procedures. After 2 days from transfection, the transfected cells were harvested with versene (Invitrogen) and used as the target cells (5×10^4 cells/well) for CTL activity assay.

[6] = test system: peptide-pulsed A24LCL cells; experiment: IFN-gamma ELISA assay on CTL lines (HLA-A*2402); assay type: cell-based, human; settings: target cells pulsed with corresponding peptide vs without peptide
[7] = test system: peptide-pulsed A24LCL cells; experiment: IFN-gamma ELISPOT assay on CTLs induced with HLA-A*2402 restricted peptides; assay type: cell-based, human; settings: against peptide-pulsed target cells compared with control without peptide, listed as IQGAP3-A24-9-779

LLAKlGHCFA (LLAKLGHCFA; not fully specified (residue 5); printed as LLAKlGHCFA) [SEQ ID NO: 143]
IFN-gamma production of peptide-induced CTLs (ELISPOT) (peptide-pulsed T2 cells [1]; listed as IQGAP3-A02-10-67): potent IFN-gamma production ability
IFN-gamma production of CTL clones (ELISA) (peptide-pulsed T2 cells [2]; listed as IQGAP3-A02-10-67): potent IFN-gamma production
IFN-gamma production of established CTL lines (ELISA) (peptide-pulsed T2 cells [3]): potent IFN-gamma production

GLVDeLAKDI (GLVDELAKDI; not fully specified (residue 5); printed as GLVDeLAKDI) [SEQ ID NO: 145]
IFN-gamma production of peptide-induced CTLs (ELISPOT) (peptide-pulsed T2 cells [1]; listed as IQGAP3-A02-10-1461): potent IFN-gamma production ability
IFN-gamma production of CTL clones (ELISA) (peptide-pulsed T2 cells [2]; listed as IQGAP3-A02-10-1461): potent IFN-gamma production
IFN-gamma production of established CTL lines (ELISA) (peptide-pulsed T2 cells [3]): potent IFN-gamma production

SLFLFRLGL [SEQ ID NO: 75]
IFN-gamma production of peptide-induced CTLs (ELISPOT) (peptide-pulsed T2 cells [1]; listed as IQGAP3-A02-9-146): potent IFN-gamma production ability
IFN-gamma production of CTL clones (ELISA) (peptide-pulsed T2 cells [2]; listed as IQGAP3-A02-9-146): potent IFN-gamma production
IFN-gamma production of established CTL lines (ELISA) (peptide-pulsed T2 cells [3]): potent IFN-gamma production

VLNDYLEET [SEQ ID NO: 99]
IFN-gamma production of peptide-induced CTLs (ELISPOT) (peptide-pulsed T2 cells [1]; listed as IQGAP3-A02-9-1234): potent IFN-gamma production ability
specific CTL activity of CTL clone against controls [4]: no significant specific CTL activity
specific CTL activity of CTL clone ([4]; listed as IQGAP3-A02-9-1234): potent CTL activity; also recorded: specific CTL activity
IFN-gamma production of established CTL lines (ELISA) (peptide-pulsed T2 cells [3]): potent IFN-gamma production

LLYYrFLNPA (LLYYRFLNPA; not fully specified (residue 5); printed as LLYYrFLNPA) [SEQ ID NO: 121]
IFN-gamma production of peptide-induced CTLs (ELISPOT) (peptide-pulsed T2 cells [1]; listed as IQGAP3-A02-10-1174): potent IFN-gamma production ability
IFN-gamma production of CTL clones (ELISA) (peptide-pulsed T2 cells [2]; listed as IQGAP3-A02-10-1174): potent IFN-gamma production
IFN-gamma production of established CTL lines (ELISA) (peptide-pulsed T2 cells [3]): potent IFN-gamma production

GLLVkNRITL (GLLVKNRITL; not fully specified (residue 5); printed as GLLVkNRITL) [SEQ ID NO: 130]
IFN-gamma production of peptide-induced CTLs (ELISPOT) (peptide-pulsed T2 cells [1]; listed as IQGAP3-A02-10-903): potent IFN-gamma production ability
IFN-gamma production of CTL clones (ELISA) (peptide-pulsed T2 cells [2]; listed as IQGAP3-A02-10-903): potent IFN-gamma production
IFN-gamma production of established CTL lines (ELISA) (peptide-pulsed T2 cells [3]): potent IFN-gamma production

IYLEWLQYF [SEQ ID NO: 7]
specific CTL activity of CTL line against controls ([5]; COS7 cells expressing either HLA-A*2402 or IQGAP3 alone): no significant specific CTL activity
specific CTL activity of CTL line ([5]; COS7 cells transfected with both IQGAP3 and HLA-A*2402, listed as IQGAP3-A24-9-779): potent CTL activity; also recorded: specific CTL activity
IFN-gamma production of established CTL lines (ELISA) [6]: potent IFN-gamma production
IFN-gamma production of peptide-induced CTLs (ELISPOT) [7]: potent IFN-gamma production ability

GLDDVSLPV [SEQ ID NO: 85]
IFN-gamma production of peptide-induced CTLs (ELISPOT) (peptide-pulsed T2 cells [1]; listed as IQGAP3-A02-9-553): potent IFN-gamma production ability
specific CTL activity of CTL clone against controls [4]: no significant specific CTL activity
specific CTL activity of CTL clone ([4]; listed as IQGAP3-A02-9-553): potent CTL activity; also recorded: specific CTL activity
IFN-gamma production of CTL clones (ELISA) (peptide-pulsed T2 cells [2]; listed as IQGAP3-A02-9-553): potent IFN-gamma production
IFN-gamma production of established CTL lines (ELISA) (peptide-pulsed T2 cells [3]): potent IFN-gamma production
